Measured values: patent US20180153995A1, “USE OF ANTIMICROBIAL POLYMERS FOR RE-SENSITIZATION OF MICROORGANISMS UPON EMERGENCE OF RESISTANCE TO ANTI-MICROBIAL AGENTS” (Technion Research & Development Foundation Limited, priority 2008, published 2018)
Read-outs that look alike come from different tables or passages of the source.

How the values were obtained:
[1] = test system: E. coli 16327; test: microbe, parasite or virus in culture; conditions: for Antibiotic MIC: E. coli 16327, no polymer (None)
[2] = test system: E. coli 14182; test: Antibiotic MIC by microdilution with or without sub-MIC polymer; assay type: cell-based, Escherichia coli
[3] = test system: S. maltophila 748; test: as above; assay type: cell-based, Stenotrophomonas maltophila
[4] = test system: E. coli K-12 efflux knockout mutant; assay type: cell-based, Escherichia coli; conditions: E. coli AG100A (efflux−)
In short: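 Broth microdilution, inocula 10^5 bacteria/ml, 24 h at 37 °C. Growth read as OD620 against calibration standards.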

[5] = test system: E. coli K-12 resistant wild type; assay type: cell-based, Escherichia coli; conditions: E. coli AG100 (w.t.)
[6] = test system: S. aureus 43300; test: Antibiotic MIC by microdilution with or without sub-MIC polymer; assay type: cell-based, Staphylococcus aureus
[7] = polymer at ¼ of its MIC (Table 16)
[8] = polymer at ½ of its MIC (Table 16)
[9] = polymer at ⅓ of its MIC (Table 16)
[10] = the OAK at ¼ of its MIC (Table 17)
[11] = the OAK at ½ of its MIC (Table 17)
[12] = the OAK at ⅓ of its MIC (Table 17)

CC1(C)S[C@@H]2[C@H](NC(=O)Cc3ccccc3)C(=O)N2[C@H]1C(=O)O [Penicillin G, penicillin G]
Antibiotic MIC ([1]; Table 10): >512 µg/mL | Antibiotic MIC ([1]; Table 12): >512 µg/mL | MIC, Alone ([1]; E. coli U16327, antibiotic alone (Table 22)): >512 µg/mL | MIC, ¼ + MIC OAK ([1]; E. coli U16327, with C12K(KNC10K)3NH2 (SEQ ID NO: 10) at ¼ of its MIC): >512 µg/mL | MIC, ½ + MIC OAK ([1]; E. coli U16327, with C12K(KNC10K)3NH2 (SEQ ID NO: 10) at ½ of its MIC): 512 µg/mL | MIC, ⅓ + MIC OAK ([1]; E. coli U16327, with C12K(KNC10K)3NH2 (SEQ ID NO: 10) at ⅓ of its MIC): >512 µg/mL | Antibiotic MIC, None ([1]; E. coli U-16327, antibiotic alone (Table 15)): >512 µg/mL | Antibiotic MIC in presence of C12K(NC8K)7NH2 (SEQ ID NO: 4), +¼ MIC ([1]; E. coli U-16327, polymer at ¼ of its MIC): >512 µg/mL | Antibiotic MIC in presence of C12K(NC8K)7NH2 (SEQ ID NO: 4), +½ MIC ([1]; E. coli U-16327, polymer at ½ of its MIC): 512 µg/mL | Antibiotic MIC in presence of C12K(NC8K)7NH2 (SEQ ID NO: 4), +⅓ MIC ([1]; E. coli U-16327, polymer at ⅓ of its MIC): >512 µg/mL | Antibiotic MIC ([2]; +½ MIC C12K(NC8K)5NH2): >512 µg/mL | Antibiotic MIC, None ([2]; antibiotic alone (Table 15)): >512 µg/mL | Antibiotic MIC ([2]; no polymer (None), Table 14): >512 µg/mL | Antibiotic MIC in presence of C12K(NC8K)7NH2 (SEQ ID NO: 4), +¼ MIC ([2]; polymer at ¼ of its MIC): >512 µg/mL | Antibiotic MIC in presence of C12K(NC8K)7NH2 (SEQ ID NO: 4), +½ MIC ([2]; polymer at ½ of its MIC): >512 µg/mL | Antibiotic MIC in presence of C12K(NC8K)7NH2 (SEQ ID NO: 4), +⅓ MIC ([2]; polymer at ⅓ of its MIC): >512 µg/mL | Antibiotic MIC ([3]; +¼ MIC (1.6 μM) C12K(KNC12K)3NH2): 512 µg/mL | Antibiotic MIC ([3]; +½ MIC (3.12 μM) C12K(KNC12K)3NH2): 128 µg/mL | Antibiotic MIC ([3]; +⅓ MIC (2.1 μM) C12K(KNC12K)3NH2): 256 to 512 µg/mL | Antibiotic MIC ([3]; no polymer (None), Table 13): 512 µg/mL | Antibiotic MIC, None ([4]; antibiotic alone (Table 16)): 8 µg/mL | Antibiotic MIC, None ([4]; antibiotic alone (Table 17)): 8 µg/mL | Antibiotic MIC in presence of C12K(NC8K)7NH2 (SEQ ID NO: 4), +¼ MIC [4, 7]: 8 µg/mL | Antibiotic MIC in presence of C12K(NC8K)7NH2 (SEQ ID NO: 4), +½ MIC [4, 8]: 4 µg/mL | Antibiotic MIC in presence of C12K(NC8K)7NH2 (SEQ ID NO: 4), +⅓ MIC [4, 9]: 8 µg/mL | Antibiotic MIC in presence of the OAK, +¼ MIC [4, 10]: 4 to 8 µg/mL | Antibiotic MIC in presence of the OAK, +½ MIC [4, 11]: 4 µg/mL | Antibiotic MIC in presence of the OAK, +⅓ MIC [4, 12]: 4 to 8 µg/mL | Antibiotic MIC, None ([5]; antibiotic alone (Table 16)): 32 µg/mL | Antibiotic MIC, None ([5]; antibiotic alone (Table 17)): 32 µg/mL | Antibiotic MIC in presence of C12K(NC8K)7NH2 (SEQ ID NO: 4), +¼ MIC [5, 7]: 16 to 32 µg/mL | Antibiotic MIC in presence of C12K(NC8K)7NH2 (SEQ ID NO: 4), +½ MIC [5, 8]: 8 µg/mL | Antibiotic MIC in presence of C12K(NC8K)7NH2 (SEQ ID NO: 4), +⅓ MIC [5, 9]: 8 to 16 µg/mL | Antibiotic MIC in presence of the OAK, +¼ MIC [5, 10]: 16 µg/mL | Antibiotic MIC in presence of the OAK, +½ MIC [5, 11]: 8 µg/mL | Antibiotic MIC in presence of the OAK, +⅓ MIC [5, 12]: 16 µg/mL | Antibiotic MIC ([6]; +¼ MIC (1.6 μM) C12(5-ene)KKNC12KNH2): 1 µg/mL | Antibiotic MIC ([6]; +¼ MIC (1.6 μM) C12K(KNC12K)2NH2): 8 µg/mL | Antibiotic MIC ([6]; +¼ MIC (1.6 μM) C12KKNC12KNH2): 4 µg/mL | Antibiotic MIC ([6]; +¼ MIC (1.6 μM) C16(9-ene)KKNC12KNH2): 2 µg/mL | Antibiotic MIC ([6]; +½ MIC (3.12 μM) C12K(KNC12K)2NH2): 4 µg/mL | Antibiotic MIC ([6]; +½ MIC (3.12 μM) C12KKNC12KNH2): 1 µg/mL | Antibiotic MIC ([6]; +½ MIC (3.12 μM) C16(9-ene)KKNC12KNH2): 0.25 µg/mL | Antibiotic MIC ([6]; +⅓ MIC (2.1 μM) C12(5-ene)KKNC12KNH2): 0.25 µg/mL | Antibiotic MIC ([6]; +⅓ MIC (2.1 μM) C12K(KNC12K)2NH2): 8 µg/mL | Antibiotic MIC ([6]; +⅓ MIC (2.1 μM) C12KKNC12KNH2): 2 to 4 µg/mL | Antibiotic MIC ([6]; +⅓ MIC (2.1 μM) C16(9-ene)KKNC12KNH2): 1 to 2 µg/mL
